Reference: US6653081B2, “Methods for monitoring antiretroviral therapy and guiding therapeutic decision in the treatment of HIV/AIDS” (ViroLogic, Inc., priority 2000, dated 2003)
Values joined by “and” are separate entries in the source; they are usually repeats but may differ in a detail not shown here. Identical values can stand only once. “Also recorded” adds a separate entry of the source.

How the values were obtained:
Y181C/M230L-RTV = assay: Phenotypic susceptibility assay, Y181C/M230L-RTV; format: cell-based, HIV-1; details: site-directed Y181C + M230L
RTV-010829/245V-297E = assay: Phenotypic susceptibility assay, RTV-010829/245V-297E; format: cell-based, HIV; details: for drug-dependent stimulation of viral replication: RTV-010829 with V245E to E297K reverted; for reductions in susceptibility compared to wild type control RTV: RTV-010829 with V245E, I270M, V276I, R277K, V292I, V293I, E297K reverted
From the text: (§1) The resistance test vectors containing a functional luciferase gene cassette were constructed and host cells were transfected with the resistance test vector DNA. The resistant test vectors contained patient-derived reverse transcriptase and protease sequences that were either susceptible or resistant to the antiretroviral agents, such as nucleoside reverse transcriptase inhibitors, (NRTIs) non-nucleoside reverse transcriptase inhibitors […] protease inhibitors. The resistance test vector viral particles produced by transfecting the resistance test vector DNA into host cells, either in the presence or absence of PRIs, were used to infect target host cells grown either in the absence of NRTIs or NNRTIs, or in the presence of increasing concentrations of the drug. The amount of luciferase activity produced in infected target host cells in the presence of varying concentrations of drug was compared to the amount of luciferase produced in infected target host cells in the absence of drug. “Drug resistance” was measured as the amount of drug required to inhibit by 50% the luciferase activity detected in the absence of drug (inhibitory concentration 50%, IC50). The IC50 values were determined by plotting percent drug inhibition vs. log10 drug concentration. Stimulation of viral replication was measured as the percent increase in luciferase activity detected when infection occurs in the presence of drug as compared to in the absence of drug.
(§2) Host cells were seeded in 10-cm-diameter dishes and were transfected several days after plating with resistance test vector plasmid DNA and the envelope expression vector. Transfections were performed using a calcium-phosphate precipitation procedure. The cell culture media containing the DNA precipitate was replaced with fresh medium, from one to 24 hours, after transfection. Cell culture media containing resistance test vector viral particles was harvested one to four days after transfection and was passed through a […] filter before being used to infect target host cells, or being stored at −80° C. HIV capsid protein (p24) levels in the harvested cell culture media were determined by an EIA method as described by the manufacturer (SAIC; Frederick, Md.). Before infection, target cells (293 and 293/T) were plated in cell culture media. Control infections were performed using cell culture media from mock transfections (no DNA) or transfections containing the resistance test vector plasmid DNA without the envelope expression plasmid. One to three or more days after infection, the media was removed and cell lysis buffer (Promega) was added to each well. Cell lysates were assayed for luciferase activity (FIG. 3). The inhibitory effect of the drug was determined using the following equation:
(§3) % luciferase inhibition=1−(RLUluc[drug]÷RLUluc)×100
(§4) where RLUluc [drug] is the Relative Light Unit of luciferase activity in infected cells in the presence of drug, and RLUluc is the Relative Light Unit of luciferase activity in infected cells in the absence of drug. IC50values were obtained from the sigmoidal curves that were generated from the data by plotting the percent inhibition of luciferase activity vs. the log10 drug concentration. The percent luciferase stimulation is the negative of the % inhibition calculated using the formula above.
A resistance test vector containing all of the mutations present in RTV-010829 except for the V245E mutation (RTV-010829/245V) was constructed and tested using the phenotypic assay described earlier. The results were compared to those determined using the parent RTV-010829. We determined the pattern of phenotypic susceptibility to the NNRTIs, delavirdine, nevirapine and efavirenz, in the reverted vector RTV-010829/245V. […] A resistance test vector containing all of the mutations present in RTV-010829 except for the I270M (RTV-010829/270I) was constructed and tested using the phenotypic assay described earlier. […]

RTV-V245E = assay: Phenotypic susceptibility assay, RTV-V245E; format: cell-based, HIV-1; details: site-directed V245E alone
From the text: as §1, §2, §3, §4
A resistance test vector containing a single mutation, V245E, (RTV-V245E) was constructed and tested in the phenotypic assay described earlier. The results were compared to those determined using a genetically defined resistance test vector that was wild type at position 245. We determined the pattern of phenotypic susceptibility to the NNRTIs, delavirdine, nevirapine and efavirenz, in […].

RTV-V245T = assay: Phenotypic susceptibility assay, RTV-V245T; format: cell-based, HIV-1; details: site-directed V245T alone
From the text: as §1, §2, §3, §4
A resistance test vector containing a single mutation, V245T, (RTV-V245T) was constructed and tested in the phenotypic assay described earlier. The results were compared to those determined using a genetically defined resistance test vector that was wild type at position 245. We determined the pattern of phenotypic susceptibility to the NNRTIs, delavirdine, nevirapine and efavirenz, in […].

RTV-K103N/I135T = assay: Phenotypic susceptibility assay, RTV-K103N/I135T; format: cell-based, HIV-1; details: site-directed K103N + I135T
From the text: as §1, §2, §3, §4
A resistance test vector containing two mutations, K103N and I135T (RTV-K103N/I135T) was constructed and tested in the phenotypic assay described earlier. The results were compared to those determined using a genetically defined resistance test vector that was wild type at position 103 and 135. We determined the pattern of phenotypic susceptibility to the NNRTIs, delavirdine, nevirapine and efavirenz, in RTV-K103N/I135T.

RTV-1033-3/106V = assay: Phenotypic susceptibility assay, RTV-1033-3/106V; format: cell-based, HIV; details: RTV-1033-3 with V106A reverted
From the text: as §1, §2, §3, §4
A resistance test vector containing all of the mutations present in RTV-1033-3 except for V106A (RTV-1033-3/106V) was constructed and tested using the phenotypic assay described earlier. The results were compared to those determined using the parent RTV-1033-3. We determined the pattern of phenotypic susceptibility to the NNRTIs, delavirdine, nevirapine and efavirenz, in the reverted vector, RTV-1033-3/106V.

[1] = test system: RTV-1033-3/106V/189V/227F; assay: Phenotypic susceptibility assay, RTV-1033-3/106V/189V/227F; format: cell-based, HIV; details: RTV-1033-3 with V106A, V189L and F227L reverted
From the text: as §1, §2, §3, §4
A resistance test vector containing all of the mutations present in RTV-1033-3 except for V106A, V189L and F227L (RTV-1033-3/106V/189V/227F) was constructed and tested using the phenotypic assay described earlier. The results were compared to those determined using the parent RTV-1033-3. We determined the pattern of phenotypic susceptibility to the NNRTIs, delavirdine, nevirapine and efavirenz, in the reverted vector, RTV-1033-3/106V/189V/227F.

Compound: CC(C)Nc1cccnc1N1CCN(C(=O)c2cc3cc(NS(C)(=O)=O)ccc3[nH]2)CC1 [delavirdine]
- drug-dependent stimulation of viral replication (Y181C/M230L-RTV): no drug-dependent stimulation
- reduction in susceptibility compared to wild type control RTV (Y181C/M230L-RTV): > 250 fold
- drug-dependent stimulation of viral replication (RTV-010829/245V-297E): no drug-dependent stimulation
- reductions in susceptibility compared to wild type control RTV (RTV-010829/245V-297E): 198 fold
- drug-dependent stimulation of viral replication (RTV-V245E): no drug-dependent stimulation
- reductions in susceptibility compared to wild type control RTV (RTV-V245E): no reductions; also recorded: no significant reduction
- drug-dependent stimulation of viral replication (RTV-V245T): no drug-dependent stimulation
- reductions in susceptibility compared to wild type control RTV (RTV-V245T): no reductions; also recorded: no significant reduction
- drug-dependent stimulation of viral replication (RTV-K103N/I135T): no drug-dependent stimulation
- reductions in susceptibility compared to wild type control RTV (RTV-K103N/I135T): 121 fold
- drug-dependent stimulation of viral replication (RTV-1033-3/106V): no drug-dependent stimulation
- increase in susceptibility (hyper-susceptibility) compared to wild type control RTV (RTV-1033-3/106V): 20 fold
- drug-dependent stimulation of viral replication [1]: ~35%
- reductions in susceptibility compared to wild type control RTV [1]: 2.7 fold

Compound: O=C1Nc2ccc(Cl)cc2[C@@](C#CC2CC2)(C(F)(F)F)O1 [efavirenz]
- drug-dependent stimulation of viral replication (Y181C/M230L-RTV): no drug-dependent stimulation
- reduction in susceptibility compared to wild type control RTV (Y181C/M230L-RTV): 25 fold
- drug-dependent stimulation of viral replication (RTV-010829/245V-297E): no drug-dependent stimulation
- reductions in susceptibility compared to wild type control RTV (RTV-010829/245V-297E): 76 fold
- drug-dependent stimulation of viral replication (RTV-V245E): no drug-dependent stimulation
- reductions in susceptibility compared to wild type control RTV (RTV-V245E): no reductions; also recorded: no significant reduction
- drug-dependent stimulation of viral replication (RTV-V245T): no drug-dependent stimulation
- reductions in susceptibility compared to wild type control RTV (RTV-V245T): no reductions; also recorded: no significant reduction
- drug-dependent stimulation of viral replication (RTV-K103N/I135T): no drug-dependent stimulation
- reductions in susceptibility compared to wild type control RTV (RTV-K103N/I135T): 80 fold
- drug-dependent stimulation of viral replication (RTV-1033-3/106V): ~20%
- reduction in susceptibility compared to wild type control RTV (RTV-1033-3/106V): no reduction
- drug-dependent stimulation of viral replication [1]: ~30%
- reductions in susceptibility compared to wild type control RTV [1]: 2 fold

Compound: Cc1ccnc2c1NC(=O)c1cccnc1N2C1CC1 [nevirapine]
- drug-dependent stimulation of viral replication (Y181C/M230L-RTV): no drug-dependent stimulation
- reduction in susceptibility compared to wild type control RTV (Y181C/M230L-RTV): > 600 fold and > 800 fold
- drug-dependent stimulation of viral replication (RTV-010829/245V-297E): no drug-dependent stimulation
- reductions in susceptibility compared to wild type control RTV (RTV-010829/245V-297E): 233 fold
- drug-dependent stimulation of viral replication (RTV-V245E): no drug-dependent stimulation
- reductions in susceptibility compared to wild type control RTV (RTV-V245E): no reductions; also recorded: no significant reduction
- drug-dependent stimulation of viral replication (RTV-V245T): no drug-dependent stimulation
- reductions in susceptibility compared to wild type control RTV (RTV-V245T): no reductions; also recorded: no significant reduction
- drug-dependent stimulation of viral replication (RTV-K103N/I135T): no drug-dependent stimulation
- reductions in susceptibility compared to wild type control RTV (RTV-K103N/I135T): 171 fold
- drug-dependent stimulation of viral replication (RTV-1033-3/106V): ~40%
- reduction in susceptibility compared to wild type control RTV (RTV-1033-3/106V): 9 fold
- drug-dependent stimulation of viral replication [1]: ~40%
- reductions in susceptibility compared to wild type control RTV [1]: 2.8 fold
